We go through 15 compounds from patent US20020052503A1, “Substituted benzolactam compounds as substance p antagonists” (priority 1995, published 2002).

T1 sequence (P25103 whole entry): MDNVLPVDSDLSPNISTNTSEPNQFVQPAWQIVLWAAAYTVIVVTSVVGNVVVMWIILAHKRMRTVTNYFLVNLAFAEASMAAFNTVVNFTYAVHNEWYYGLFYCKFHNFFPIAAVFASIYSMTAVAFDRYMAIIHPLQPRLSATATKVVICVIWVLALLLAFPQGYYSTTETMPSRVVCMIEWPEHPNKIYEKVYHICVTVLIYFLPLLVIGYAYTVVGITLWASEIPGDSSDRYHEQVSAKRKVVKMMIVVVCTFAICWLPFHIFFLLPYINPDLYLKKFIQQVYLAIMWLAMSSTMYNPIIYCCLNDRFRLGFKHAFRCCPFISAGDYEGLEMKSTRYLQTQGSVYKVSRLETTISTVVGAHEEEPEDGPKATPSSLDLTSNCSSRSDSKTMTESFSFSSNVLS

One data set deals with [Sar^9, Met(O2)^11]substance P-induced hind paw tapping in gerbils. Put plainly: [Sar^9, Met(O2)^11]substance P-induced tapping test. In kind it is in vivo, gerbil. The following applies: Meriones unguiculatus, % inhibition at 0.3 mg/kg scoring. The protocol: The activity of the compounds of this invention against CNS disorder is determined by [Sar^9, Met(O2)^11]substance P-induced tapping test in gerbils. More specifically, gerbils are lightly anesthetized with ether and the skull surface is exposed. [Sar^9, Met(O2)^11]substance P or vehicle (5 μl) are administered directly into the lateral ventricles via a 25 gauge needle inserted 3.5 mm below lambda. Following injection, gerbils are placed in 2 l beaker individually and monitored for repetitive hind paw tapping. Some compounds prepared in the following Examples were tested in accordance with these testing methods.
As a reminder, the inhibition is the relative decrease from the control value, in per cent. For the compound `COc1cc2c(cc1CN[C@H]1CCCN[C@H]1c1ccccc1)N(C)C(=O)CC2.Cl.Cl` [Compound 21, (2S,3S)-3-(6-Methoxy-1-methyl-2-oxo-1,2,3,4-tetrahydroquinolin-7-yl)methylamino-2-phenylpiperidine dihydrochloride], the inhibition at 0.3 mg/kg amounted to 52%.

Test system in a further data set: not given
Experiment: not given
Details: not given
The melting point is the temperature, or range, at which the solid turns liquid. `COc1cc2c(cc1CN[C@H]1CCCN[C@H]1c1ccccc1)N(C)C(=O)OC2.Cl.Cl`: the melting point was in the range of 235 to 237 °C. On the same count and under the same terms, next, `COc1cc2ccc(=O)n(C)c2cc1CN[C@H]1C2CCN(CC2)[C@H]1C(c1ccccc1)c1ccccc1`: 125 to 128 °C; `COc1cc2c(cc1CN[C@H]1CCCN[C@H]1c1ccccc1)C(C(F)(F)F)CC(=O)N2C.Cl.Cl` (stereo partly drawn): 225 to 256 °C; `CN1C(=O)CCc2cc(OC(F)F)c(CN[C@H]3CCCN[C@H]3c3ccccc3)cc21.Cl.Cl`: 238 to 240 °C. On to `COc1cc2c(cc1CN[C@H]1CCCN[C@H]1c1ccccc1)N(C)C(=O)SC2.Cl.Cl`, for which the melting point was 252 to 254 °C. Still for that read-out and setting: next, `COc1cc2ccc(=O)n(C)c2cc1CN[C@H]1CCCN[C@H]1c1ccccc1.Cl.Cl`: 260 to 263 °C. Still for that read-out and setting: next, `COc1cc2c(cc1CN[C@H]1C3CCN(CC3)[C@H]1C(c1ccccc1)c1ccccc1)N(C)C(=O)CC2`: 136 to 139 °C; `COc1cc2c(cc1CN[C@H]1CCCN[C@H]1c1ccccc1)N(C)C(=O)CC2.Cl.Cl` [Compound 21, (2S,3S)-3-(6-Methoxy-1-methyl-2-oxo-1,2,3,4-tetrahydroquinolin-7-yl)methylamino-2-phenylpiperidine dihydrochloride]: 265 to 268 °C.

As to `COc1cc2c(cc1CN[C@H]1CCCN[C@H]1c1ccccc1)CCC(=S)N2C.Cl.Cl`, the melting point was in the range of 219 to 221 °C. The same measure, in the same setting: next, `COc1cc2c(cc1CN[C@H]1CCCN[C@H]1c1ccccc1)N(C(C)C)C(=O)CC2.Cl.Cl`: 257 to 260 °C. For `COc1cc2c(cc1CN[C@H]1CCCN[C@H]1c1ccccc1)N(C)C(=S)CC2.Cl.Cl`, the melting point lay within 245 to 246 °C. As to `COc1cc2c(cc1CN[C@H]1CCCN[C@H]1c1ccccc1)C(C)(C)C(=S)N2C.Cl.Cl`, the melting point lay within 234 to 236 °C. On to `COc1cc2c(cc1CN[C@H]1CCCN[C@H]1c1ccccc1)N(C)C(=O)CCC2.Cl.Cl`, for which the melting point was in the range of 236 to 238 °C. Same read-out and setting: next, `COc1cc2c(cc1CN[C@H]1CCCN[C@H]1c1ccccc1)CCC(=O)N2C.Cl.Cl`: 243 to 244 °C; `CN1C(=O)CCc2cc(OCC(F)(F)F)c(CN[C@H]3CCCN[C@H]3c3ccccc3)cc21.Cl.Cl`: 239 to 240 °C.

The next data set concerns the target T1, substance P receptor sites in human IM-9 cells (Homo sapiens, UniProt P25103).
T1 construct: endogenous in cells; host or cells: human IM-9 cells (whole cells)
Put plainly: IM-9 binding assay (inhibition of [^3H]SP binding). The following applies: [^3H]SP binding to human IM-9 cells. The protocol:
The activity of the compounds of the present invention, as substance P antagonists, is determined by their ability to inhibit the binding of substance P at its 30 receptor sites in CHO-cells which reveal NK1 receptor or IM-9 cells employing radioactive ligands. The substance P antagonist activity of the herein described compounds is evaluated by using the standard assay procedure described by D. G. Payan et al., as reported in the The Journal of Immunology . 133, 3260 (1984). This method essentially involves determining the concentration of the individual compound required to reduce by 50% the amount of radiolabelled substance P ligands at their receptor sites in said isolated cow tissues or IM-9 cells, thereby affording characteristic IC50 values for each compound tested. More specifically, inhibition of [^3H]SP binding to human IM-9 cells by compounds are determined in assay buffer (50 mM Tris-HCl (pH 7.4), 1 mM MnCl2, 0.02% bovine serum albumin, bacitracin (40 μg/ml), leupeptin (4 μg/ml), chymostatin (2 μg/ml) and phosphoramidon (30 μg/ml)). […] Nonspecific binding is defined as the radioactivity remaining in the presence of 1 μM SP. The filters are placed into tubes and counted using liquid scintillation counter.
`COc1cc2c(cc1CN[C@H]1CCCN[C@H]1c1ccccc1)N(C)C(=O)CC2.Cl.Cl` [Compound 21, (2S,3S)-3-(6-Methoxy-1-methyl-2-oxo-1,2,3,4-tetrahydroquinolin-7-yl)methylamino-2-phenylpiperidine dihydrochloride] registered an IC50 of less than 0.1 nM.

In a further data set the target is T2, Ca^2+ channel in rat heart membrane preparation (Rattus norvegicus, UniProt P22002).
T2 construct: from tissue; host or cells: rat heart membrane preparation
T2 sequence (P22002 whole entry, other chains not shown): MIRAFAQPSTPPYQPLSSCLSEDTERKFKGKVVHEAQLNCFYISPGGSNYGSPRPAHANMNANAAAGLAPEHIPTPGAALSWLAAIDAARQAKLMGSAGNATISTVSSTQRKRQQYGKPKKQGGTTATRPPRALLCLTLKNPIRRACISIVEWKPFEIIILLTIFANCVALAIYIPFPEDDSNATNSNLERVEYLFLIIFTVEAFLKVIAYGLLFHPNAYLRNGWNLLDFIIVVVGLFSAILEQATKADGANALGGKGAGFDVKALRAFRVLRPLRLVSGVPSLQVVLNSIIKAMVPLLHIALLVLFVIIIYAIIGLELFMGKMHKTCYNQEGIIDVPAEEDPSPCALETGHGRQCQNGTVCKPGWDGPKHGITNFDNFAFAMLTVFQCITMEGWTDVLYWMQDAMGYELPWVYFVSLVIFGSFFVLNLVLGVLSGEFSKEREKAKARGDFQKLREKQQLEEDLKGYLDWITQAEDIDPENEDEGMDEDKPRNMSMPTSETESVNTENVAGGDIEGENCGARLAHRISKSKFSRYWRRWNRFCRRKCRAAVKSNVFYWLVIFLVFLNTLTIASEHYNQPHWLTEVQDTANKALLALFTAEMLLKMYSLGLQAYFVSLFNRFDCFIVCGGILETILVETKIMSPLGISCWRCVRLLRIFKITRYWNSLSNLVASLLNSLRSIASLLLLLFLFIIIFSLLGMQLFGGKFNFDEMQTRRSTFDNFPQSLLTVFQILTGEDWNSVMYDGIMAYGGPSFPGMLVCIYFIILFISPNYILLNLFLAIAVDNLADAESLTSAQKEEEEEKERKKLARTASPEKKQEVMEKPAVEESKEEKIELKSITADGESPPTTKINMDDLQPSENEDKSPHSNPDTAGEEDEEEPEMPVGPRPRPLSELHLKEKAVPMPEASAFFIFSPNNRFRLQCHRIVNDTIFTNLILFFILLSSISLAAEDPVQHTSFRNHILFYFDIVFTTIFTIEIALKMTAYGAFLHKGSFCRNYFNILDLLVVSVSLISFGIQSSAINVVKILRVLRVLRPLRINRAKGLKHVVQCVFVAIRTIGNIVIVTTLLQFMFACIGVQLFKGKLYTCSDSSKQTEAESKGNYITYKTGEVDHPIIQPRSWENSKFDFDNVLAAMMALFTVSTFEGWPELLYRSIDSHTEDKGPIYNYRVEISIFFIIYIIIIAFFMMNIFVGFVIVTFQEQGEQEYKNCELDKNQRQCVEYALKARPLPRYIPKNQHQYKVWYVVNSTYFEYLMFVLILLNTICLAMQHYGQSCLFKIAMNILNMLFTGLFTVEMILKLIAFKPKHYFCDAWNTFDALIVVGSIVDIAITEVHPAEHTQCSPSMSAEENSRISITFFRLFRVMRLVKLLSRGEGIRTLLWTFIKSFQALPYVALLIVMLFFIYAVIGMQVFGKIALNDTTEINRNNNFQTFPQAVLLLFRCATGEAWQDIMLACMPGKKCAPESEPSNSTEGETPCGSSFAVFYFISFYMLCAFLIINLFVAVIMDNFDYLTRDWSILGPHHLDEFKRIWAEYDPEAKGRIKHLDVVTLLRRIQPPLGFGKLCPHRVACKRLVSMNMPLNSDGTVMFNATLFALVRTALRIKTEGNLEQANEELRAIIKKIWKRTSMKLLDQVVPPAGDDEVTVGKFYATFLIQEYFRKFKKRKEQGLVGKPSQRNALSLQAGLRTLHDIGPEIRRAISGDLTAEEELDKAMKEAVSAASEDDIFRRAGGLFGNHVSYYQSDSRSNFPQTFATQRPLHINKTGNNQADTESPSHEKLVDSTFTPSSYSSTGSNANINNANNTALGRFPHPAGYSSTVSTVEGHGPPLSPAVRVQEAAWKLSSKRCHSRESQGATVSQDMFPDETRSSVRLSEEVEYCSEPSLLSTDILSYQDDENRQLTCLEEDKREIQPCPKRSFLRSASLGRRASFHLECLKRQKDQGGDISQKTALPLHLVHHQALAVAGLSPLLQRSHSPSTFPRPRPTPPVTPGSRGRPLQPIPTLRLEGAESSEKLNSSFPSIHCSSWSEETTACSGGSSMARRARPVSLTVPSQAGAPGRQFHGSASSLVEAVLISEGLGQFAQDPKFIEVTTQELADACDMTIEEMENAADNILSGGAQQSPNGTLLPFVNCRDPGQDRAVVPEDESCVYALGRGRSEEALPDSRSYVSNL
T2 sequence (P54290 25-944 partner limits assumed, other chains not shown): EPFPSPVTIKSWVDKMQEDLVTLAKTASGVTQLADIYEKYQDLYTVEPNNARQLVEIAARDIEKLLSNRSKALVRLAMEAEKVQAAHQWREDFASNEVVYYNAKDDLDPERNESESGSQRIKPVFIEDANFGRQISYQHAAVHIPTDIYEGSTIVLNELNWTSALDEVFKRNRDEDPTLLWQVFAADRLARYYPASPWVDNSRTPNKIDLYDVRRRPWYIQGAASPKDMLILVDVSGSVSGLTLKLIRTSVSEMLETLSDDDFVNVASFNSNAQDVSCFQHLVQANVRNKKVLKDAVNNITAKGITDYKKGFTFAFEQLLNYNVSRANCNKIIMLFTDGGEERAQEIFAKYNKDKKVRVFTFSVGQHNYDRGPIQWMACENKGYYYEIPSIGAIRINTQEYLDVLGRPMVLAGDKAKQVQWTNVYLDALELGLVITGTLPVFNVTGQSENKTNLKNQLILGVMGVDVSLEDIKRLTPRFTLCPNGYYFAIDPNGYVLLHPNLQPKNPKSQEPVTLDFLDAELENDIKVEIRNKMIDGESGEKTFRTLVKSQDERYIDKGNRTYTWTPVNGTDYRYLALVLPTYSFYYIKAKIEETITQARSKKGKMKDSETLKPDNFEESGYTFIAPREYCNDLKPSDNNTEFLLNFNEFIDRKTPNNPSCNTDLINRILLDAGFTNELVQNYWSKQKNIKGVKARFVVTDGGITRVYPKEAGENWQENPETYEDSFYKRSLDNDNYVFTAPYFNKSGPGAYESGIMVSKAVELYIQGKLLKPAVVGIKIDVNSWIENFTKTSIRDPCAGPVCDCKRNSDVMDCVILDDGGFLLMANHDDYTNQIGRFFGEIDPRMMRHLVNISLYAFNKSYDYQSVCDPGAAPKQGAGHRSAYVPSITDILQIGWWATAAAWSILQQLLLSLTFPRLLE
T2 sequence (P54290 945-1091 partner limits assumed, other chains not shown): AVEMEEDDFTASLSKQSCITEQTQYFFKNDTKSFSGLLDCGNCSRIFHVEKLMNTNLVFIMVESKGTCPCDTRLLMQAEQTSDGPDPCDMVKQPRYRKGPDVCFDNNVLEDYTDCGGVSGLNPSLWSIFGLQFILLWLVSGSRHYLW
Put plainly: verapamil binding study ([^3H]desmethoxyverapamil). Particulars: read-out: verapamil binding study (Ca^2+ channel binding affinity). The protocol: The adverse effect on Ca^2+ channel binding affinity is determined by verapamil binding study in rat heart membrane preparation. More specifically, verapamil binding study is performed as previously described by Reynolds et al., (J. Pharmacol. Exp. Ther. 237, 731, 1986). Briefly, incubations are initiated by the addition of tissue to tubes containing 0.25 nM [^3H]desmethoxyverapamil and various concentrations of compounds (total volume; 1 ml). Nonspecific binding is defined as radioligand binding remaining in the presence of 3-10 μM methoxyverapamil.
Consider `COc1cc2c(cc1CN[C@H]1CCCN[C@H]1c1ccccc1)N(C)C(=O)CC2.Cl.Cl` [Compound 21, (2S,3S)-3-(6-Methoxy-1-methyl-2-oxo-1,2,3,4-tetrahydroquinolin-7-yl)methylamino-2-phenylpiperidine dihydrochloride], for which the IC50 was greater than 3000 nM.
